Reference: patent publication US6534480B2, “Compositions for increasing energy in vivo” (Bioenergy Inc., priority 1999, dated 2003)

Assays:
[1] = tested on: ATP; assay: ATP in vastis lateralis muscle biopsies (Ribose Athlete Study); format: in vivo, human; details: for ATP Recovery % of Pre: 48 hours recovery vs initial level
Procedure: Four healthy, fit subjects in the age range 24 to 26 years of age were tested. The group was selected to be homogeneous regarding fitness level, gender and mean age with no known metabolic, neuronal, endocrine or cardiopulmonary disorders. All were capable of or had experience with cycling. The study protocol included four phases: (1) an initial baseline phase consisting of no exercise session; (2) a loading phase including three days of administration of either D-ribose or placebo (glucose) three times per day; (3) a training phase of three days employing exercise sessions characterized by serial (N=6) bouts of short (10 second) high-intensity cycle sprints at 7% body mass resistance with 50 second rest periods between sprints twice per day (morning and afternoon), and (4) a recovery phase for a period of 48 hours after the final training session. FIG. 1 is a diagram of a single cycle sprint bout. Muscle biopsies (MB) were performed on the […] lateralis muscle using both legs in order to evenly distribute and minimize sampling and possible muscle soreness per leg due to the biopsy itself. The first MB was collected at rest at the beginning of the study to establish a baseline and immediately after the first training-session of day 0 or the first phase. During the loading phase, no MB was taken. Muscle Biposies were taken following the final training session and after 48 hours of recovery. Two subjects were randomly selected for inclusion into the placebo or ribose group. Ribose or glucose was administered orally in a 250 ml iso-osmotic solution containing 10.0 grams of either ribose or placebo three times per day for three days preceding training (loading phase) and for three days during training (training phase). One-half liter isotonic electrolyte solution was given immediately post exercise and again 30 minutes later to avoid dehydration. The concentration of the following analytes was determined in the MB samples: ATP, ADP, AMP, IMP (inosine monophosphate), TAN (total adenine nucleotides), creatine phosphate and creatine.

[2] = Sprint power output and well-being in normal untrained subjects (planned); format: in vivo, human; details: 5 grams of D-ribose in 200 ml. of water after each sprint bout
From the text: D-ribose, given immediately before and during exercise, can provide a benefit to those subjects who have not been previously trained. Four healthy, normal male volunteers will be tested for sprint power output on an exercycle, as for Example 2 above. Each subject will serve as their own control. Between the sprint bouts, the subjects will cycle slowly and continuously. Total test time will be one hour, with four sprint bouts during the test. Following the initial baseline test and following each sprint bout, the subjects will be given 5 grams of D-ribose in 200 ml. of water or a similar tasting placebo (glucose). Sprint power output will be tested 15 minutes after each ingesting of the test solutions. Each subject will undergo two sessions, one week apart, one with ribose and one with placebo, in randomized order. The placebo will be sweetened with glucose in order to be indistinguishable from the ribose solution.

[3] = oral, humans; cited from earlier work
[4] = Exercise induced angina, single patient with coronary artery disease; format: in vivo, human
From the text: A patient with a history of coronary artery disease, status post triple coronary artery bypass, experienced exercise induced angina. Their present medications are: enalapril (an angiotensin converting enzyme inhibitor), carvedilol (a β blocking agent), nitroglycerine patch and nitroglycerine tablets sublingual as needed. […] The patient performed poorly on two stress tests. Their exercise regimen consisted of a daily walk. Due to the development of angina, the patient was able to walk less than one mile per day, at which point they took sublingual nitroglycerine. The patient was given oral D-ribose dissolved in about 250 cc. of water. Over a six-month period, the patient received intermittent doses of 5-10 grams per day of D-ribose. […] When the ribose was discontinued, their pre-ribose, anginal-inducing exercise state recurred, which necessitated the use of supplemental oral nitroglycerine.

[5] = tested on: de novo synthesis of AMP; details: ribose added to the perfusate; cited from earlier work
[6] = tested on: ATP; details: heart recovering from ischemia, intravenous perfusion; cited from earlier work
[7] = Treadmill test (Bruce protocol), single patient with stable coronary artery disease; format: in vivo, human
Procedure: The patient was tested for treadmill performance. After two baseline treadmill tests, following the Bruce protocol, they received orally administered D-ribose (40 gm in three divided doses daily) for three days and completed a third treadmill test. […] In each test, this patient concluded the test due to shortness of breath, but experienced no angina.
It is generally accepted that the product of heart rate and systemic pressure is a measure of myocardial function and energy level, with lower numbers indicating better myocardial function. As a result of the administration of ribose, average tolerated time on the treadmill increased.

## O=C[C@H](O)[C@H](O)[C@H](O)CO [Ribose, D-ribose]
[1]
  ATP Recovery % of Pre: 82%
[1]; listed as ribose
  ATP Recovery % of Pre: 82%
[1]; in vivo
  ATP Change Post-Rec: 6.90 mmol/kg dw
  ATP Change Pre-Post: −11.43 mmol/kg dw
[1]; muscle biopsy after 48 hours of recovery
  Mean ATP Values, Recovery: 20.80 mmol/kg dw
[1]; muscle biopsy following the final training session
  Mean ATP Values, Post: 13.90 mmol/kg dw
[1]; muscle biopsy, after three days ribose loading, before training
  Mean ATP Values, Pre: 25.33 mmol/kg dw
[2]
  subjective feeling of well being: subjectively higher feeling of well being
[2]; sustained mild exercise
  sprint power output after ribose vs placebo: higher power output
[3]
  treatment of cardiac insufficiency and hypovolemic shock: effective
[4]; oral D-ribose 5-10 grams per day
  patient's subjective evaluation of the ribose treatment: much less angina pain
[4]; oral D-ribose 5-10 grams per day intermittent over six months, before: less than one mile per day
  exercise tolerance (daily walk) without nitroglycerine: two miles per day
[5]
  de novo synthesis of AMP in sedentary muscle: increases the de novo synthesis of AMP
  decline in de novo synthesis in contracting muscle: does not eliminate the decline
[6]
  recovery of ATP levels: enhanced
[7]; 0 (rest), Test vs average of two baselines
  Rate-pressure product, % change: −9.55%
[7]; 0 (rest), oral D-ribose 40 gm in three divided doses daily for three days
  Rate-pressure product (beats per minute times systolic blood pressure mm Hg), Test: 9,177
[7]; 3 minutes on treadmill, after D-ribose
  Rate-pressure product (beats per minute times systolic blood pressure mm Hg), Test: 15,272
[7]; 3 minutes, Test vs average of two baselines
  Rate-pressure product, % change: −1.60%
[7]; 6 minutes on treadmill, after D-ribose
  Rate-pressure product (beats per minute times systolic blood pressure mm Hg), Test: 20,592
[7]; 6 minutes, Test vs average of two baselines
  Rate-pressure product, % change: −15.68%
[7]; 9 minutes on treadmill, after D-ribose
  Rate-pressure product (beats per minute times systolic blood pressure mm Hg), Test: 25,356
[7]; 9 minutes, Test vs average of two baselines
  Rate-pressure product, % change: −9.87%
[7]; Test vs average of two baselines
  Tolerated time, % change: 5.06%
[7]; during ribose administration
  patient's subjective report: feeling more energetic
[7]; treadmill, Bruce protocol, after D-ribose
  Tolerated time, Test: 540.00 s
